Results from PMC1851987, “Identification of the Endogenous Key Substrates of the Human Organic Cation Transporter OCT2 and Their Implication in Function of Dopaminergic Neurons” (PLoS ONE, 2007).

What was measured:
[1] = target: T1, organic cation transporter OCT2 (wild-type 400R) (Homo sapiens, UniProt O15244, S270A); experiment: Specific uptake into OCT2 (wild-type) transfected HEK-293 cells vs empty vector, LC-MS-MS; conditions: 5 min of incubation with 10 µmol/l
T1 sequence (O15244 1-555 S270A): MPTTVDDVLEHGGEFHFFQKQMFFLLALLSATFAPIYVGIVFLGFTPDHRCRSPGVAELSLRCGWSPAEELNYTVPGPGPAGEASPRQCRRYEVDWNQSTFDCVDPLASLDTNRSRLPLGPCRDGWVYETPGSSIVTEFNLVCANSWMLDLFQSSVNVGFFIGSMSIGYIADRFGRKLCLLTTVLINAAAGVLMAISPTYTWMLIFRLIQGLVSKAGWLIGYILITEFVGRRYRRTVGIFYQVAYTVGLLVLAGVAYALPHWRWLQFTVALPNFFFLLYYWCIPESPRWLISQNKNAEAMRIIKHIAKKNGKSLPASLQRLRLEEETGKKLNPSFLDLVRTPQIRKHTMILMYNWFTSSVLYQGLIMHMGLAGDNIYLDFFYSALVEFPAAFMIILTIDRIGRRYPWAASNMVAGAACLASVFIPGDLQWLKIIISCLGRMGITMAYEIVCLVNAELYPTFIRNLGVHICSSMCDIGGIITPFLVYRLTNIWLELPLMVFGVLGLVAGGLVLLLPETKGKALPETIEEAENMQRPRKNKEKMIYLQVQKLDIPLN

SH-SY5Y cells = experiment: Intracellular metabolite N-methyl-salsolinol after salsolinol incubation, SH-SY5Y cells; assay type: in vitro ADME, human; conditions: mean±s.e.m., n = 3
Excerpt: (§1) Beyond its physiological neuromodulatory function, there is considerable interest in the pathophysiologic role of salsolinol. […] It has been hypothesized that especially N-methyl-salsolinol is etiologically involved in apoptotic nigral cell death in PD by promoting calcium-triggered disruption of mitochondrial permeability transition.[14]

HTZ-146 cells = experiment: Intracellular metabolite N-methyl-salsolinol after salsolinol incubation, HTZ-146 cells; assay type: in vitro ADME, human; conditions: mean±s.e.m., n = 3
Excerpt: as §1

[2] = tested on: OCT2-transfected HEK-293 cells; experiment: Intracellular metabolite N-methyl-salsolinol after salsolinol incubation, OCT2-transfected HEK-293 cells; assay type: in vitro ADME, human; conditions: mean±s.e.m., n = 3
[3] = target: T1, organic cation transporter OCT2 (wild-type 400R); conditions: cited from earlier work
[4] = substrate: O=C1NC(Cc2c[nH]cn2)C(=O)N2CCCC12; experiment: Specific uptake into OCT1-transfected HEK-293 cells; assay type: cell-based, human; conditions: other: specific uptake, 1 min of loading, mean (s.e.m.); pH 7.4; 37.0 °C
[5] = substrate: O=C1NC(Cc2c[nH]cn2)C(=O)N2CCCC12; experiment: Specific uptake into EMT-transfected HEK-293 cells; assay type: cell-based, human; conditions: other: specific uptake, 1 min of loading, mean (s.e.m.); pH 7.4; 37.0 °C
[6] = 48 h incubation with 10 µmol/l salsolinol
[7] = 48 h incubation with 100 µmol/l salsolinol

For `CC1c2cc(O)c(O)cc2CCN1C` (stereo not shown) [N-methyl-salsolinol], the “uptake rate relative to salsolinol” value [1] was “about two-thirds”, the “intracellular concentration of the metabolite N-methyl-salsolinol” value (shortened to “intracellular concentration”) (SH-SY5Y cells; [6]) was 0.18±0.01 nmol/mg protein and the “intracellular concentration” value (SH-SY5Y cells; [7]) was 1.28±0.11 nmol/mg protein. For the same molecule, the “intracellular concentration” value (HTZ-146 cells; [6]) was 0.17±0.01 nmol/mg protein, the “intracellular concentration” value (HTZ-146 cells; [7]) was 1.16±0.06 nmol/mg protein and the “intracellular concentration” value [2, 6] was 0.89±0.06 nmol/mg protein. For the same molecule, the “intracellular concentration” value [2, 7] was 7.56±0.41 nmol/mg protein.

For `NCCc1ccc(O)c(O)c1` [dopamine], the OCT2-mediated transport [3] is listed as “no significant OCT2-mediated transport”.

B1: OCT1 (Homo sapiens) (protein)
chain: MPTVDDILEQVGESGWFQKQAFLILCLLSAAFAPICVGIVFLGFTPDHHCQSPGVAELSQRCGWSPAEELNYTVPGLGPAGEAFLGQCRRYEVDWNQSALSCVDPLASLATNRSHLPLGPCQDGWVYDTPGSSIVTEFNLVCADSWKLDLFQSCLNAGFLFGSLGVGYFADRFGRKLCLLGTVLVNAVSGVLMAFSPNYMSMLLFRLLQGLVSKGNWMAGYTLITEFVGSGSRRTVAIMYQMAFTVGLVALTGLAYALPHWRWLQLAVSLPTFLFLLYYWCVPESPRWLLSQKRNTEAIKIMDHIAQKNGKLPPADLKMLSLEEDVTEKLSPSFADLFRTPRLRKRTFILMYLWFTDSVLYQGLILHMGATSGNLYLDFLYSALVEIPGAFIALITIDRVGRIYPMAMSNLLAGAACLVMIFISPDLHWLNIIIMCVGRMGITIAIQMICLVNAELYPTFVRNLGVMVCSSLCDIGGIITPFIVFRLREVWQALPLILFAVLGLLAAGVTLLLPETKGVALPETMKDAENLGRKAKPKENTIYLKVQTSEPSGT
notes: The cDNAs encoding the organic cation transporters; expressed in transfected cells; host or cells: HEK-293, stably transfected, pcDNA3
In the case of B1, the Km [4] is reported as 655 (191) μmol/l.

B2: EMT (Homo sapiens) (protein)
chain: MPSFDEALQRVGEFGRFQRRVFLLLCLTGVTFAFLFVGVVFLGTQPDHYWCRGPSAAALAERCGWSPEEEWNRTAPASRGPEPPERRGRCQRYLLEAANDSASATSALSCADPLAAFPNRSAPLVPCRGGWRYAQAHSTIVSEFDLVCVNAWMLDLTQAILNLGFLTGAFTLGYAADRYGRIVIYLLSCLGVGVTGVVVAFAPNFPVFVIFRFLQGVFGKGTWMTCYVIVTEIVGSKQRRIVGIVIQMFFTLGIIILPGIAYFIPNWQGIQLAITLPSFLFLLYYWVVPESPRWLITRKKGDKALQILRRIAKCNGKYLSSNYSEITVTDEEVSNPSFLDLVRTPQMRKCTLILMFAWFTSAVVYQGLVMRLGIIGGNLYIDFFISGVVELPGALLILLTIERLGRRLPFAASNIVAGVACLVTAFLPEGIAWLRTTVATLGRLGITMAFEIVYLVNSELYPTTLRNFGVSLCSGLCDFGGIIAPFLLFRLAAVWLELPLIIFGILASICGGLVMLLPETKGIALPETVDDVEKLGSPHSCKCGRNKKTPVSRSHL
notes: as for B1
In the case of B2, the Km [5] is reported as 126 (38) μmol/l.
